The values that follow come from patent EP0441218A2, “Anthracycline-glycosyl prodrugs, process for their preparation and their use in combination with functionalised tumour-specific enzyme conjugates” (BEHRINGWERKE Aktiengesellschaft, priority 1990, dated 1991).

Series [1] in a line: Stability of the prodrug on incubation in enzyme-free buffer. It counts as physicochemical. To be noted: Phosphat-Puffer pH 5, 37 °C, without enzyme, over the same period (ca. 54 h). The protocol:
(§1) Spaltung von 14-O-α-D-Galacto-hexo-pyranosyl-doxorubicin (Verbindung 10) durch Human-Plazenta-α-Galactosidase A 0.5 mg der Ausgangsverbindung wurden in 0.5 ml Phosphat-Puffer, pH 5, enthaltend 0.03 U/ml der aus Human-Plazenta isolierten α-Galactosidase A gelöst und bei 37 °C im Dunklen inkubiert. Nach verschiedenen Inkubationszeiten wurden Proben des Inkubationsansatzes entnommen und direkt mittels Hochdruckflüssigkeitschromatographie analysiert (Säule: Nucleosil 100 (RP 18, 5 µm Teilchendurchmesser, 125 x 4.6 mm; Mobile Phase: Gradient aus Lösung A und B: 0 min - 20% A, 10 min - 30% A, 15 min - 30% A, Lösung A = 100% Acetonitril, Lösung B = 0.02 m Phosphat-Puffer pH 3.0; Flußrate: 1 ml/min; Detektion: Fluoreszenz, Ex 495 nm, Em 560 nm). Die Retentionszeit der Ausgangsverbindung betrug unter diesen Chromatographiebedingungen 9.0 min. Die während der Inkubation entstehende Verbindung wies eine mit Adriamycin identische Retentionszeit von 12.6 min auf.
(§2) Die Halbwertszeit der Spaltung betrug unter dem beschriebenen Bedingungen ca. 54 h (extrapolierter Wert). Bei der Inkubation der Ausgangsverbindung in enzymfreier Pufferlösung blieb die Verbindung über diesen Zeitraum stabil.

Series [2] addresses T1, Kaffeebohnen-α-Galactosidase (Coffea arabica, UniProt Q42656).
T1 construct: purchased Sigma
Briefly: Cleavage of the prodrug by coffee bean α-galactosidase (HPLC analysis). It counts as biochemical. To be noted: coffee bean alpha-galactosidase; 0.03 U/ml Kaffeebohnen-α-Galactosidase (Sigma), Phosphat-Puffer pH 5, 37 °C; read-out: Halbwertszeit der Spaltung. As for the experimental part:
as §1
Spaltung von 14-O-α-D-Galacto-hexo-pyranosyl-doxorubicin (Verbindung 10) durch Kaffebohnen-α-Galactosidase Die Ausgangsverbindung wurde unter den gleichen wie in Beispiel 11 beschriebenen Bedingungen in Gegenwart von 0.03 U/ml Kaffeebohnen-α-Galactosidase (Sigma) inkubiert. Die Halbwertszeit der Spaltung betrug in Gegenwart des Enzyms ca. 20 min.

In series [3] the target is T2, Human-Plazenta-α-Galactosidase A (Homo sapiens, UniProt P06280).
T2 construct: der aus Human-Plazenta isolierten α-Galactosidase A; from tissue; host or cells: human placenta
T2 sequence (P06280 32-429): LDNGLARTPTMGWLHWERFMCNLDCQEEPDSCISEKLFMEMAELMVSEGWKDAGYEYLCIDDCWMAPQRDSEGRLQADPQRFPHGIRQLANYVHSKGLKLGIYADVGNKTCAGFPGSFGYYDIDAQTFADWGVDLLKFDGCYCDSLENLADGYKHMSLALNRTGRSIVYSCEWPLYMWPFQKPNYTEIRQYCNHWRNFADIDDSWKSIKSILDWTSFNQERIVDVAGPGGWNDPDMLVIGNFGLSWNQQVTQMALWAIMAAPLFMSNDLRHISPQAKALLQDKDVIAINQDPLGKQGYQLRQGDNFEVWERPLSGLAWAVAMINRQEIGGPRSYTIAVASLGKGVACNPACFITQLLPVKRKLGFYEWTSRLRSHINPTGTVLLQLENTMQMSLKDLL
Briefly: Cleavage of the prodrug by human placenta α-galactosidase A (HPLC analysis). It counts as biochemical. To be noted: placenta alpha-galactosidase a, 0.03 U/ml α-Galactosidase A, Phosphat-Puffer pH 5, 37 °C, dark, extrapolated value, read-out: Halbwertszeit der Spaltung (converted). As for the experimental part: as §1, §2

T1 sequence (Q42656 16-378): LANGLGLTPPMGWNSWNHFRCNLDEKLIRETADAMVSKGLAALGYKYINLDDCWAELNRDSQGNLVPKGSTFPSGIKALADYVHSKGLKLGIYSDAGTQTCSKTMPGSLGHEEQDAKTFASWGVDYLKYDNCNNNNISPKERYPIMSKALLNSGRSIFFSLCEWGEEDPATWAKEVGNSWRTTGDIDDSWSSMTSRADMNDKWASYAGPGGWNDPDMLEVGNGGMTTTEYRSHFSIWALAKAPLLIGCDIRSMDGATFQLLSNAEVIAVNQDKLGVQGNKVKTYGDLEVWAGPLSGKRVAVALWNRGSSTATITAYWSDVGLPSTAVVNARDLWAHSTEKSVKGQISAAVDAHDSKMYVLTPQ

As to `COc1cccc2c1C(=O)c1c(O)c3c(c(O)c1C2=O)C[C@@](O)(C(=O)CO[C@H]1O[C@H](CO)[C@H](O)[C@H](O)[C@H]1O)C[C@@H]3O[C@H]1C[C@H](N)[C@H](O)[C@H](C)O1` [Verbindung 10, 14-O-α-D-Galactohexopyranosyl-doxorubicin], in series [1], the “Stability in enzymfreier Pufferlösung” value is given as “stabil”. The values for the half-life in series [2] and in series [3] were roughly 0.333 h and roughly 54 h, respectively.
